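Tested at 5 concentrations; 48 h exposure; 96-well plates; endpoints linearly interpolated, else capped at highest concentration. TGI denotes the concentration required for complete inhibition of growth.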
What was measured:
Assay in all cases: NCI tumour cell line growth inhibition, 48 h
786-0 renal = tested on: 786-0 renal
UACC-257 melanoma = tested on: UACC-257 melanoma
UO-31 renal = tested on: UO-31 renal
SK-MEL-5 melanoma = tested on: SK-MEL-5 melanoma
HOP-62 NSCLC = tested on: HOP-62 NSCLC
DMS 114 small cell lung = tested on: DMS 114 small cell lung
KM12 colon = tested on: KM12 colon
DLD-1 colon = tested on: DLD-1 colon
IGROV1 ovarian = tested on: IGROV1 ovarian
HCT-15 colon = tested on: HCT-15 colon
HL-60(TB) leukemia = tested on: HL-60(TB) leukemia
SK-MEL-28 melanoma = tested on: SK-MEL-28 melanoma
SF-295 CNS = tested on: SF-295 CNS
M14 melanoma = tested on: M14 melanoma
LXFL 529 NSCLC = tested on: LXFL 529 NSCLC
OVCAR-4 ovarian = tested on: OVCAR-4 ovarian
HCC-2998 colon = tested on: HCC-2998 colon
SF-539 CNS = tested on: SF-539 CNS
A498 renal = tested on: A498 renal
RXF 393 renal = tested on: RXF 393 renal
SNB-75 CNS = tested on: SNB-75 CNS
XF 498 CNS = tested on: XF 498 CNS
NCI-H23 lung = tested on: NCI-H23 lung
CAKI-1 renal = tested on: CAKI-1 renal
OVCAR-8 ovarian = tested on: OVCAR-8 ovarian
A549 NSCLC = tested on: A549 NSCLC
OVCAR-5 ovarian = tested on: OVCAR-5 ovarian
ACHN renal = tested on: ACHN renal
OVCAR-3 ovarian = tested on: OVCAR-3 ovarian
HCT-116 colon = tested on: HCT-116 colon
CCRF-CEM leukemia = tested on: CCRF-CEM leukemia
SNB-78 CNS = tested on: SNB-78 CNS
M19-MEL melanoma = tested on: M19-MEL melanoma
SK-MEL-2 melanoma = tested on: SK-MEL-2 melanoma
NCI-H226 lung = tested on: NCI-H226 lung
SW-620 colon = tested on: SW-620 colon
KM20L2 colon = tested on: KM20L2 colon
TK-10 renal = tested on: TK-10 renal
DMS 273 small cell lung = tested on: DMS 273 small cell lung
RPMI-8226 leukemia = tested on: RPMI-8226 leukemia
U251 CNS = tested on: U251 CNS
EKVX NSCLC = tested on: EKVX NSCLC
HT29 colon = tested on: HT29 colon
UACC-62 melanoma = tested on: UACC-62 melanoma
MALME-3M melanoma = tested on: MALME-3M melanoma
SK-OV-3 ovarian = tested on: SK-OV-3 ovarian
NCI-H460 lung = tested on: NCI-H460 lung
SN12C renal = tested on: SN12C renal
MOLT-4 leukemia = tested on: MOLT-4 leukemia
SNB-19 CNS = tested on: SNB-19 CNS
COLO 205 colon = tested on: COLO 205 colon
LOX IMVI melanoma = tested on: LOX IMVI melanoma
K-562 leukemia = tested on: K-562 leukemia
SF-268 CNS = tested on: SF-268 CNS
SR leukemia = tested on: SR leukemia
NCI-H522 lung = tested on: NCI-H522 lung
HOP-92 NSCLC = tested on: HOP-92 NSCLC

CC(=O)O[C@H]1CC[C@@]2(C)C(=CC[C@@H]3C2CC[C@]2(C)Nc4c(cnn4-c4ccccc4)CC32)C1 (some centres not stated)
TGI (786-0 renal): 36.6 µM | TGI (UACC-257 melanoma): > 100 µM | TGI (UO-31 renal): 84 µM | TGI (SK-MEL-5 melanoma): > 100 µM | TGI (HOP-62 NSCLC): 63.9 µM | TGI (DMS 114 small cell lung): > 100 µM | TGI (KM12 colon): 69.8 µM | TGI (DLD-1 colon): > 100 µM | TGI (IGROV1 ovarian): > 100 µM | TGI (HCT-15 colon): > 100 µM | TGI (HL-60(TB) leukemia): > 100 µM | TGI (SK-MEL-28 melanoma): > 100 µM | TGI (SF-295 CNS): 8.52 µM | TGI (M14 melanoma): > 100 µM | TGI (LXFL 529 NSCLC): > 100 µM | TGI (OVCAR-4 ovarian): 66.9 µM | TGI (HCC-2998 colon): 70.8 µM | TGI (SF-539 CNS): 9.12 µM | TGI (A498 renal): 51.9 µM | TGI (RXF 393 renal): 42.2 µM | TGI (SNB-75 CNS): 30.8 µM | TGI (XF 498 CNS): > 100 µM | TGI (NCI-H23 lung): > 100 µM | TGI (CAKI-1 renal): > 100 µM | TGI (OVCAR-8 ovarian): > 100 µM | TGI (A549 NSCLC): > 100 µM | TGI (OVCAR-5 ovarian): > 100 µM | TGI (ACHN renal): > 100 µM | TGI (OVCAR-3 ovarian): > 100 µM | TGI (HCT-116 colon): > 100 µM | TGI (CCRF-CEM leukemia): > 100 µM | TGI (SNB-78 CNS): > 100 µM | TGI (M19-MEL melanoma): > 100 µM | TGI (SK-MEL-2 melanoma): > 100 µM | TGI (NCI-H226 lung): > 100 µM | TGI (SW-620 colon): > 100 µM | TGI (KM20L2 colon): > 100 µM | TGI (TK-10 renal): > 100 µM | TGI (DMS 273 small cell lung): 18.4 µM | TGI (RPMI-8226 leukemia): 6.62 µM | TGI (U251 CNS): > 100 µM | TGI (EKVX NSCLC): > 100 µM | TGI (HT29 colon): > 100 µM | TGI (UACC-62 melanoma): > 100 µM | TGI (MALME-3M melanoma): > 100 µM | TGI (SK-OV-3 ovarian): > 100 µM | TGI (NCI-H460 lung): > 100 µM

CCc1cccc(C(C)CC)c1NC(=O)CC1C(=O)Nc2ccccc2S1(=O)=O (configuration not stated)
TGI (786-0 renal): 33.6 µM | TGI (SN12C renal): > 100 µM | TGI (UACC-257 melanoma): > 100 µM | TGI (UO-31 renal): 96.2 µM | TGI (SK-MEL-5 melanoma): > 100 µM | TGI (HOP-62 NSCLC): > 100 µM | TGI (DMS 114 small cell lung): 39.2 µM | TGI (KM12 colon): 40.5 µM | TGI (DLD-1 colon): 33.2 µM | TGI (IGROV1 ovarian): > 100 µM | TGI (HCT-15 colon): 48.7 µM | TGI (SK-MEL-28 melanoma): > 100 µM | TGI (SF-295 CNS): > 100 µM | TGI (M14 melanoma): > 100 µM | TGI (LXFL 529 NSCLC): 24.5 µM | TGI (OVCAR-4 ovarian): 39.9 µM | TGI (MOLT-4 leukemia): 41.5 µM | TGI (SNB-19 CNS): > 100 µM | TGI (HCC-2998 colon): 22.1 µM | TGI (SF-539 CNS): 52.1 µM | TGI (COLO 205 colon): 44.5 µM | TGI (A498 renal): 72.6 µM | TGI (SNB-75 CNS): 94.6 µM | TGI (XF 498 CNS): > 100 µM | TGI (NCI-H23 lung): 40.1 µM | TGI (CAKI-1 renal): 40.2 µM | TGI (OVCAR-8 ovarian): 15.9 µM | TGI (A549 NSCLC): 70 µM | TGI (OVCAR-5 ovarian): > 100 µM | TGI (ACHN renal): > 100 µM | TGI (OVCAR-3 ovarian): 38.2 µM | TGI (CCRF-CEM leukemia): 30.5 µM | TGI (LOX IMVI melanoma): 39.9 µM | TGI (SNB-78 CNS): 65.5 µM | TGI (M19-MEL melanoma): > 100 µM | TGI (SK-MEL-2 melanoma): > 100 µM | TGI (SW-620 colon): 28.7 µM | TGI (KM20L2 colon): > 100 µM | TGI (TK-10 renal): 84.5 µM | TGI (DMS 273 small cell lung): 71.3 µM | TGI (RPMI-8226 leukemia): 43.3 µM | TGI (U251 CNS): > 100 µM | TGI (EKVX NSCLC): 44.3 µM | TGI (HT29 colon): 47.9 µM | TGI (UACC-62 melanoma): > 100 µM | TGI (MALME-3M melanoma): > 100 µM | TGI (SK-OV-3 ovarian): 99.2 µM | TGI (K-562 leukemia): 28.5 µM | TGI (SF-268 CNS): > 100 µM | TGI (NCI-H460 lung): > 100 µM

O=S1(=O)OCCOS(=O)(=O)C1(I)I
TGI (786-0 renal): 35 µM | TGI (SN12C renal): 38.2 µM | TGI (UACC-257 melanoma): 46.3 µM | TGI (UO-31 renal): 33.3 µM | TGI (SK-MEL-5 melanoma): 30 µM | TGI (HOP-62 NSCLC): 38.9 µM | TGI (DMS 114 small cell lung): 43.9 µM | TGI (KM12 colon): 40.8 µM | TGI (DLD-1 colon): 35.8 µM | TGI (IGROV1 ovarian): 63.8 µM | TGI (SR leukemia): 49.1 µM | TGI (HL-60(TB) leukemia): 68.3 µM | TGI (SK-MEL-28 melanoma): 55.2 µM | TGI (SF-295 CNS): 90.8 µM | TGI (M14 melanoma): 50.7 µM | TGI (LXFL 529 NSCLC): 27.3 µM | TGI (NCI-H522 lung): 45.2 µM | TGI (OVCAR-4 ovarian): 48.9 µM | TGI (MOLT-4 leukemia): 56.9 µM | TGI (SNB-19 CNS): 55.3 µM | TGI (HCC-2998 colon): 35.2 µM | TGI (SF-539 CNS): 40.1 µM | TGI (COLO 205 colon): 37.8 µM | TGI (A498 renal): 30.3 µM | TGI (SNB-75 CNS): 48.7 µM | TGI (XF 498 CNS): 37.5 µM | TGI (NCI-H23 lung): 27.9 µM | TGI (CAKI-1 renal): 35.7 µM | TGI (OVCAR-8 ovarian): 59.5 µM | TGI (A549 NSCLC): 71.1 µM | TGI (OVCAR-3 ovarian): 73.8 µM | TGI (HCT-116 colon): 29.9 µM | TGI (CCRF-CEM leukemia): 35.6 µM | TGI (LOX IMVI melanoma): 30.5 µM | TGI (SNB-78 CNS): 86.4 µM | TGI (M19-MEL melanoma): 53.8 µM | TGI (SK-MEL-2 melanoma): 39.5 µM | TGI (HOP-92 NSCLC): 29.8 µM | TGI (NCI-H226 lung): 29.7 µM | TGI (SW-620 colon): 39.3 µM | TGI (TK-10 renal): 70.3 µM | TGI (DMS 273 small cell lung): 47.3 µM | TGI (RPMI-8226 leukemia): 36.8 µM | TGI (EKVX NSCLC): 59 µM | TGI (HT29 colon): 69.4 µM | TGI (UACC-62 melanoma): 30.3 µM | TGI (MALME-3M melanoma): 37.6 µM | TGI (SK-OV-3 ovarian): 47.2 µM | TGI (K-562 leukemia): 74.6 µM | TGI (SF-268 CNS): 74.7 µM

From PubChem BioAssay (NCI)
